{"source": "patent US10668123B2", "about": "“Capsicum compositions and uses thereof” (OmniActive Health Technologies Limited, priority 2015, dated 2020)", "system": "3T3L1 cells", "test": "Lipolysis in 3T3L1 cells, glycerol release as biomarker", "type": "cell-based", "conditions": "positive control, time and concentration not given", "description": "Pancreatic lipase activity was measured using 4-methylumbelliferyl oleate (MU Oleate) as a substrate via a fluorescence kinetic assay. 3T3L1 cells were treated with capsicum composition (100 μg/1111) at different time points such as 1 hour (h), 2 h, 4 h and 24 h. […] was used as the positive control. Lipolysis was assessed using glycerol release as a biomarker.\nCapsicum composition enhanced the lipolysis after 24 h treatment. The ratio of released glycerol/protein content was 1.59, compared to the positive control:isoproterenol (ratio: 1.60)."}
{"compound": "CC(C)NCC(O)c1ccc(O)c(O)c1", "note": "(stereo not shown) [Isoproterenol]", "values": [{"measurement": "Ratio treated/non treated (lipolysis)", "result": 1.60}]}
